Legend:
Test in all cases: Kinase selectivity, Mobility shift assay
Type in all cases: biochemical
IKKB = IKKB (Homo sapiens (Human), UniProt O14920)
Description: (§1) Object: In this assay, the inhibitory activity of the test substance on the kinases listed in Table 3 was determined, and therefore the selectivity of the present compound was determined.
(§2) Except for the BRAF V600E kinase in Table 3, the Mobility shift assay was used for other kinases.
(§3) 1. Preparation of Agents:
(§4) • 1.1 1-fold kinase buffer without MnCl2: 50 mM HEPES, pH 7.5, 0.0015% Brij-35, 10 mM MgCl2, 2 mM DTT. • 1.2 1-fold kinase buffer with MnCl2: 50 mM HEPES, pH 7.5, 0.0015% Brij-35, 10 mM MgCl2, 10 mM MnCl2, 2 mM DTT. • 1.3 Termination solution: 100 mM HEPES, pH 7.5, 0.0015% Brij-35, 0.2% Coating Reagent#3, 50 mM EDTA. • 1.4 2.5-fold kinase solution: The kinase was added to the 1-fold kinase buffer to form a 2.5-fold kinase solution. • 1.5 2.5-fold substrate solution: FAM fluorescence-labelled polypeptide and ATP were added to the 1-fold kinase buffer to form a 2.5-fold substrate solution. 2. Preparation of 5-fold compound
(§5) The final test concentration of the compound was 10 μM at maximum. Firstly, a 50-fold concentration (i.e. 500 μM) was prepared with 100% DMSO. The compound was diluted with 100% DMSO by 5 folds at 5 concentrations (successively 500 μM, 100 μM, 20 μM, 4 μM, and 0.8 μM). After diluting with 1-fold kinase buffer by 10 folds, 5 μl of the samples were transferred to a 384-well reaction plate. Two negative control wells and two positive control wells were set at each line respectively. Replication was made in a 96-well plate in five concentrations of 5-fold compound. 10% DMSO was added to the positive control well, and 5 μl of EDTA (250 mM) was added to the negative control well.
(§6) • 3.1 To the 384-well reaction plate was added 5-fold compound dissolved in 10% DMSO at 5 μl/well. • 3.2 To the 384-well reaction plate was added 2.5-fold kinase solution at 10 μl/well. The plate was incubated at room temperature for 10 mins. • 3.3 To the 384-well reaction plate was added 2.5-fold substrate solution at 10 μl/well. The plate was incubated at 28° C. for a certain period. • 3.4 25 μl termination solution was added to terminate the reaction. The conversion was read from Caliper. 4. Inhibition rate calculation Inhibition rate (%)=(maximum−sample value)/(maximum−minimum)×100 • wherein: • maximum refers to the conversion at the DMSO control well, • minimum refers to the conversion at the control well without kinase. Lanthascreen Analysis Method for the BRAF V600E Kinase 1. Preparation of Agents: • 1.1 2-fold kinase solution: using 1-fold kinase buffer to prepare 2-fold kinase solution, with a final concentration of 0.35 nM of BRAFV600E; • 1.2 4-fold substrate solution: using 1-fold kinase buffer to prepare 4-fold substrate solution, with a final substrate solution concentration of 0.2 μM of Fluorescein-MAP2K1 and 1.5 μM of ATP. 2. Preparation of 4-fold compound • The final test concentration of the compound was 10 μM at maximum. Firstly, a 100-fold concentration (i.e. 1000 μM) was prepared with 100% DMSO. The compound was diluted with 100% DMSO by 5 folds at 5 concentrations. The compound series was identical to that in the Mobility Shift Assay. After diluting with 1-fold kinase buffer by 25 folds, the resulting samples were shaked and mixed evenly on a plate-shaker for 10 mins. 3. Procedure • 3.1 To the 384-well reaction plate was added 4-fold compound dissolved in 10% DMSO at 2.5 µl/well; • 3.2 To the 384-well reaction plate was added 2-fold kinase solution at 5 μl/well, and to the negative control wells were added 1-fold kinase buffer. The samples were shaked, mixed evenly, and kept standing at room temperature. • 3.3 To the 384-well reaction plate was added 4-fold substrate solution at 2.5 μl/well. The plate was reacted, shaked, mixed evenly and incubated at room temperature for one hour; • 3.4 Reaction result detection: 2-fold detection solution was prepared, with a final concentration of 2 nM of Antibody and 10 mM of EDTA. 10 μl of the detection solution was transferred to the 384-well plate to terminate the reaction. […]

p38a = p38a (Homo sapiens (Human), UniProt Q16539)
p38a, sequence (Q16539 whole entry): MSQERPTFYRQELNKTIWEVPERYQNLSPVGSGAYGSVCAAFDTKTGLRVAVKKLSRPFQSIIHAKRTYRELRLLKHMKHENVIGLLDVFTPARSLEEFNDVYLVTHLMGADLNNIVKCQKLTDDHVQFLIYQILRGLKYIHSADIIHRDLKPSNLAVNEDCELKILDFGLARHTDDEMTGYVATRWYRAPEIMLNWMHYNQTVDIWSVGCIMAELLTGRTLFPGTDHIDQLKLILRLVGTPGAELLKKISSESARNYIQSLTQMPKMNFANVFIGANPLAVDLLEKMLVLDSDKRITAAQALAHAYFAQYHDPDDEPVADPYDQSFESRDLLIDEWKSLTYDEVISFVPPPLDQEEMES
Description: as §1, §2, §3, §4, §5, §6

PDK1 = PDK1 (Homo sapiens (Human), UniProt O15530)
PDK1, sequence (O15530 whole entry): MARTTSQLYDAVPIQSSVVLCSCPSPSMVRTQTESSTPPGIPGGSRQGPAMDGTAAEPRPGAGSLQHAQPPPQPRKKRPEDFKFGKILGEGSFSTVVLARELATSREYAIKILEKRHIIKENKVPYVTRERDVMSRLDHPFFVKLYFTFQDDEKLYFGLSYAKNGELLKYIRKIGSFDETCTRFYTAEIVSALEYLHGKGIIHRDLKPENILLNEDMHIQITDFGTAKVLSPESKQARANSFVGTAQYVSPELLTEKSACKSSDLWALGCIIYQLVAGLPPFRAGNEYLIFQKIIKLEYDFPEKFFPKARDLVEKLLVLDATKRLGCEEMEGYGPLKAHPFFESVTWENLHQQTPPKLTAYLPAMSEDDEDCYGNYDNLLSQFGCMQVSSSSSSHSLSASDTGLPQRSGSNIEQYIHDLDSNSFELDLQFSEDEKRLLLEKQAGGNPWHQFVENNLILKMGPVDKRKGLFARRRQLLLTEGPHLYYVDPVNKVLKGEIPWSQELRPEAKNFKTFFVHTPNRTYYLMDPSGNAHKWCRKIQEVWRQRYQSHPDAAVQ
Description: as §1, §2, §3, §4, §5, §6

CSK = CSK (Homo sapiens (Human), UniProt P41240)
Description: as §1, §2, §3, §4, §5, §6

DYRK1b = DYRK1b (Homo sapiens (Human), UniProt Q9Y463)
DYRK1b, sequence (Q9Y463 whole entry, species assumed): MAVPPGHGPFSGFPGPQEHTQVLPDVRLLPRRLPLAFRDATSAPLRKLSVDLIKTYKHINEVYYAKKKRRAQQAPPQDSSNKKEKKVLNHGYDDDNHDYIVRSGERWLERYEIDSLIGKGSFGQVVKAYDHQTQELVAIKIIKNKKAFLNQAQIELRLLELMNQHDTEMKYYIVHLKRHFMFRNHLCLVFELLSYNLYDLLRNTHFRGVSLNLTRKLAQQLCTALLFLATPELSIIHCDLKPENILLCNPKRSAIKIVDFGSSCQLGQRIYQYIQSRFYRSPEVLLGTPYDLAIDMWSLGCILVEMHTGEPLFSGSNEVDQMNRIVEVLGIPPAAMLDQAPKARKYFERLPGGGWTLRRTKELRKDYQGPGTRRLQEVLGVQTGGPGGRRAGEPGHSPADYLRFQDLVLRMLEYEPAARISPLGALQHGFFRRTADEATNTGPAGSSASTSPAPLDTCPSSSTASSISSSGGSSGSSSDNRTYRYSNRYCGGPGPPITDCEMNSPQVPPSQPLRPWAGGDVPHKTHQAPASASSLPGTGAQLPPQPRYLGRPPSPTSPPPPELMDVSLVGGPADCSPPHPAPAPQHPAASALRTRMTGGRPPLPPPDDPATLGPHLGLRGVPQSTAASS
Description: as §1, §2, §3, §4, §5, §6

FES = FES (Homo sapiens (Human), UniProt P07332)
FES, sequence (P07332 whole entry, species assumed): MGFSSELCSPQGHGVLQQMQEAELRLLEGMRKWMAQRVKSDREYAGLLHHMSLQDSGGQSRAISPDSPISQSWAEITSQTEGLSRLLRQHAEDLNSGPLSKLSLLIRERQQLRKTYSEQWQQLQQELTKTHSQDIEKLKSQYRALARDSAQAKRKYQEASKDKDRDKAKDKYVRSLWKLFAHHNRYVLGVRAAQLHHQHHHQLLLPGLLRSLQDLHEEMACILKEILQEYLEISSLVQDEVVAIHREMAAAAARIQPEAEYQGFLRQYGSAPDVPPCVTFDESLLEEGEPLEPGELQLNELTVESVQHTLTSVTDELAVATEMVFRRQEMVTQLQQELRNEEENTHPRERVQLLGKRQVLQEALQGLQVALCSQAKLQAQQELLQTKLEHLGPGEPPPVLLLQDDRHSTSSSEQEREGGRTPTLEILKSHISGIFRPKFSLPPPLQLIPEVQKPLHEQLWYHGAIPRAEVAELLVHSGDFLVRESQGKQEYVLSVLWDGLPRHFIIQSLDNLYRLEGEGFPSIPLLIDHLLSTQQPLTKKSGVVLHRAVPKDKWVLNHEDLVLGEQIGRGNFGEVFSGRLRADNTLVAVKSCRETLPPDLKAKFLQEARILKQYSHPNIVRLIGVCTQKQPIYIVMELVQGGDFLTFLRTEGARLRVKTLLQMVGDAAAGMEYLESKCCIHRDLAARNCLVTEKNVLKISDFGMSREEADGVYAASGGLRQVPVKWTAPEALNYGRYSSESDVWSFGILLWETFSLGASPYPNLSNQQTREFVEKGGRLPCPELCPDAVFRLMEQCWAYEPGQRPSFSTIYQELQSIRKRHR
Description: as §1, §2, §3, §4, §5, §6

FGFR1 = FGFR1 (Homo sapiens (Human), UniProt P11362)
Description: as §1, §2, §3, §4, §5, §6

AMPKa1 = AMPKa1 (Homo sapiens (Human), UniProt Q13131)
Description: as §1, §2, §3, §4, §5, §6

AURA = AURA (Homo sapiens (Human), UniProt O14965)
Description: as §1, §2, §3, §4, §5, §6

EGFR = EGFR (Homo sapiens (Human), UniProt P00533)
Description: as §1, §2, §3, §4, §5, §6

ZAP70 = ZAP70 (Homo sapiens (Human), UniProt P43403)
Description: as §1, §2, §3, §4, §5, §6

MARK1 = MARK1 (Homo sapiens (Human), UniProt Q9P0L2)
MARK1, sequence (Q9P0L2 whole entry, species assumed): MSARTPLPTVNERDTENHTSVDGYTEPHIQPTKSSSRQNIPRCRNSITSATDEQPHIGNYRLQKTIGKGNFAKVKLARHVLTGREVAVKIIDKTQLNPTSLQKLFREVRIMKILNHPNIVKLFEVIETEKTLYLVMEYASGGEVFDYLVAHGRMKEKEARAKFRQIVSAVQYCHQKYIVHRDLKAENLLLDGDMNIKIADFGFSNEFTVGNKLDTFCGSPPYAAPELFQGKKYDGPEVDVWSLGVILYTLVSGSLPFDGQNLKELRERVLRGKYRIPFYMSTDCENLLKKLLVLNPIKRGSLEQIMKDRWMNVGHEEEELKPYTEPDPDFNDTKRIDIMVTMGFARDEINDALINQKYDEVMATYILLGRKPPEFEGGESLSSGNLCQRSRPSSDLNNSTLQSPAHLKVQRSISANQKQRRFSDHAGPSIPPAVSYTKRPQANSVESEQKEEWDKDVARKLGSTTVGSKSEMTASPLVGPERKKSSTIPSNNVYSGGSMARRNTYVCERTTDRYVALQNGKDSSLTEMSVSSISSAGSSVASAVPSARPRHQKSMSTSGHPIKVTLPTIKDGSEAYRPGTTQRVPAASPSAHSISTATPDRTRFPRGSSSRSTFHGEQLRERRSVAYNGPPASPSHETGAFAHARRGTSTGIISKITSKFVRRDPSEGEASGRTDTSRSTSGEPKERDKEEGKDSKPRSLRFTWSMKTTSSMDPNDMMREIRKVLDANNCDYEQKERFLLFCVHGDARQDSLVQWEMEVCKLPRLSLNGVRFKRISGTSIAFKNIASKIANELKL
Description: as §1, §2, §3, §4, §5, §6

ALK = ALK (Homo sapiens (Human), UniProt Q9UM73)
Description: as §1, §2, §3, §4, §5, §6

CMET = CMET (Homo sapiens (Human), UniProt P08581)
Description: as §1, §2, §3, §4, §5, §6

MSK1 = MSK1 (Homo sapiens (Human), UniProt O75582)
Description: as §1, §2, §3, §4, §5, §6

KDR = KDR (Homo sapiens (Human), UniProt P35968)
Description: as §1, §2, §3, §4, §5, §6

NEK2 = NEK2 (Homo sapiens (Human), UniProt P51955)
NEK2, sequence (P51955 whole entry, species assumed): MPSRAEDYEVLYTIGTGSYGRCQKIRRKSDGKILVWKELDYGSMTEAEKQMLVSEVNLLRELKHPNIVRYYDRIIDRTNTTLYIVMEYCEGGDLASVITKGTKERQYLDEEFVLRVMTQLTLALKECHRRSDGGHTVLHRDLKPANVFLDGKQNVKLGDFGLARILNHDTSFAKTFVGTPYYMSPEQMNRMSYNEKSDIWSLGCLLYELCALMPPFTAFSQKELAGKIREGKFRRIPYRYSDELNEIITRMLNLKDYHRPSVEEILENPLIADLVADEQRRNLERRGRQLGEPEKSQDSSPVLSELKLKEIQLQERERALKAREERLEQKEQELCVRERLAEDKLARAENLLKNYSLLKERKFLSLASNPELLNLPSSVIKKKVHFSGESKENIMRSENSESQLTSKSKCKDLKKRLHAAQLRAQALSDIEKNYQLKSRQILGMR
Description: as §1, §2, §3, §4, §5, §6

CKIT = CKIT (Homo sapiens (Human), UniProt P10721)
Description: as §1, §2, §3, §4, §5, §6

PDGFRb = PDGFRb (Homo sapiens (Human), UniProt P09619)
PDGFRb, sequence (P09619 33-1106, species assumed): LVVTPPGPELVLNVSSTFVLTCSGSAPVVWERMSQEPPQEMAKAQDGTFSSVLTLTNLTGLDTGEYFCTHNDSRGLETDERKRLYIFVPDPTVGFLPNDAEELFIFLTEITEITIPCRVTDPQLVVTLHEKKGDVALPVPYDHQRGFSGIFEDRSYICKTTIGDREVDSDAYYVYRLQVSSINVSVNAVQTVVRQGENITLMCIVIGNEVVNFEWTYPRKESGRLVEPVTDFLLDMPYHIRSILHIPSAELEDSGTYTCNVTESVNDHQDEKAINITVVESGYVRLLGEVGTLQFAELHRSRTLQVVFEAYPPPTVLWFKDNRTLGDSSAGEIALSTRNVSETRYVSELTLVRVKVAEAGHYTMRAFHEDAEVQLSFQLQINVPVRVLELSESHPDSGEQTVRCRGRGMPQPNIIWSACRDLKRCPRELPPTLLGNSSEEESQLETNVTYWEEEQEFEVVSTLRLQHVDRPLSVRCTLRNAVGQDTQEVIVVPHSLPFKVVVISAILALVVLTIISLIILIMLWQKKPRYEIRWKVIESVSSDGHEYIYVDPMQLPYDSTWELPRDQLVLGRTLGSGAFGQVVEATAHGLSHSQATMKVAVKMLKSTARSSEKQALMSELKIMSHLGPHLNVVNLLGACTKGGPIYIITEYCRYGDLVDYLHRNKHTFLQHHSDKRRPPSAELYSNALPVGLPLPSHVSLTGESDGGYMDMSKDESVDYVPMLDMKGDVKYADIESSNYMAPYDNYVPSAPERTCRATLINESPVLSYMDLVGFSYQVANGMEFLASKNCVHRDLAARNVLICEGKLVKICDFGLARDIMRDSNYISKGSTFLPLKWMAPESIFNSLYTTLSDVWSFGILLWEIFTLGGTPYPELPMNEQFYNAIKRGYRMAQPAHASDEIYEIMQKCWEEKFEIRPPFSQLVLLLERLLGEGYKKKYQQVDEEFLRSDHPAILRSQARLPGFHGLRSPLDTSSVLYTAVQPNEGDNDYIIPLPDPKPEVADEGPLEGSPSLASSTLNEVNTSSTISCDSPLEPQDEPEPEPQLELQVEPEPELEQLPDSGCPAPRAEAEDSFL
Description: as §1, §2, §3, §4, §5, §6

Nc1ccc(-c2ccc3ncc4c(=O)[nH]c(=O)n(-c5cccc(C(F)(F)F)c5)c4c3n2)cn1 [Compound 5, 9-(6-aminopyridin-3-yl)-1-(3-(trifluoromethyl)phenyl)pyrimido[5,4-c][1,5]naphthyridine-2,4(1H,3H)-dione]
IC50 (IKKB): > 10000 nM | IC50 (p38a): > 10000 nM | IC50 (PDK1): > 10000 nM | IC50 (CSK): > 10000 nM | IC50 (DYRK1b): > 10000 nM | IC50 (FES): > 10000 nM | IC50 (FGFR1): > 10000 nM | IC50 (AMPKa1): > 10000 nM | IC50 (AURA): > 10000 nM | IC50 (EGFR): > 10000 nM | IC50 (ZAP70): > 10000 nM | IC50 (MARK1): > 10000 nM | IC50 (ALK): 1170 nM | IC50 (CMET): > 10000 nM | IC50 (MSK1): > 10000 nM | IC50 (KDR): > 10000 nM | IC50 (NEK2): > 10000 nM | IC50 (CKIT): > 10000 nM | IC50 (PDGFRb): > 10000 nM

Reference: US9365572B2, “PI3K and/or mTOR inhibitor” (XUANZHU PHARMA CO., LTD., priority 2012, dated 2016)
